Reference: patent publication US20260152480A1, “POLYCYCLIC COMPOUND AND USE THEREOF” (TYK MEDICINES , INC., priority 2022, published 2026)

tested on: YAP-TEAD; test: Nano luciferase method to detect YAP-TEAD inhibitor activity (293T cells transfected with pGL3B-8×GTiiC-nLuc-CMV-fLuc); format: cell-based; conditions: Homo sapiens, HEK-293T; transfected 293T cells, 48 hours incubation; read-out: Nano Luciferas detection (IC50)
From the text: Experimental Example 2 Nano Luciferase Method to Detect YAP-TEAD Inhibitor Activity
(1) Experimental materials and equipment: 293T cells were purchased from Nanjing Cobioer Biosciences CO., LTD. DMEM medium (high sugar, phenol red free, Bio-Channel), DMSO (dimethyl sulfoxide), Lipo6000™ transfection reagent (Beyotime), pGL3B-8×GTiiC-nLuc-CMV-fLuc plasmid, 0.25% EDTA Tripsin (trypsin solution), 1×PBS (phosphate buffer, PH7.2), 96-well white cell culture plate (PerkinElmer), Fetal Bovine Serum (FBS), 10,000 U/mL penicillin-G/streptomycin, High-speed cryo-centrifuge (EPPENDORF 5810R), 37° C. CO^2 incubator, Vi-Cell® cell counter, Envision microplate reader (PerkinElmer).
Resuscitated 293T cells were inoculated into 10 cm petri dishes and placed in a 5% CO^2 incubator at a constant temperature of 37° C. To ensure transfection efficiency, cells in the logarithmic phase (cell density of about 50%-70%) should be used.
One day before transfection, cells in logarithmic phase were digested with Trypsin-EDTA, the reaction was terminated by adding medium, and the cell suspension was made by blowing and mixing with a pipette.
The cell concentration was determined using Vi-cell and diluted to a suspension of 5*10^5 cells per milliliter. Once the cell suspension was prepared, it was gently mixed and 10 ml of liquid was added to a 10 cm petri dish. […] The cells were incubated in a 5% CO^2 incubator at 37° C. for 1 day.
Take two clean and sterile centrifuge tubes, added 750 μL of opti-MEM Medium without antibiotics and serum respectively, then added […] of plasmid (pGL3B-8×GTiiC-nLuc-CMV-fLuc) to one of the tubes and gently blown with a pipette for mixing; the other tube was added with Lipo6000 transfection reagent and gently blown with a pipette for mixing. After standing at room temperature for 5 minutes, the culture medium containing DNA was gently added to the culture medium containing Lipo6000 transfection reagent, mixed by gently inverting the centrifuge tube, and stood at room temperature for 5 minutes.
The above mixture was added evenly dropwise to a 10-cm petri dish and replaced with fresh complete medium after 6 h of incubation.
After 1 day of transfection, Trypsin EDTA was used to digest the cells, medium was added to terminate the reaction, and a cell suspension was made by blowing and mixing with a pipette.
Cell concentration was determined using Vi-cell, and diluted to a suspension of 20,000 cells per milliliter.
After the cell suspension was prepared, it was gently mixed and 100 μL was added to each well in a 96-well plate so that the density of cells to be measured was 2000 per well.
The inoculated cell culture plates were incubated in an incubator, and the compounds in concentration gradients were added after about 24 hours.
The 10 mM compound reservoir solution was diluted to 50 μM with culture medium, and 50 μM compound solution was added sequentially to the third column of the deep-well plate, and 216 μL of culture medium containing 0.5% DMSO to the fourth to eleventh columns.
Gradient dilution: 100 μL of solution was pipetted from the third column and added to the fourth column, after mixing; another 100 μL of solution was pipetted from the fourth column and added to the fifth column, and the operation was repeated until the eleventh column.
Using a multichannel pipette, 25 μL of compound solution was pipetted from the deep-well plate and added to the 96-well culture plate, and each compound was repeated four times on the 96-well plate. A concentration gradient with a maximum concentration of 10,000 nM, 1:3.16, was eventually formed on the 96-well plate.
The 96-well plate was incubated in a 5% CO^2 incubator at a constant temperature of 37° C. for 48 hours, then removed and equilibrated at room temperature for 10 minutes.
100 μL of detection reagent was added to each well and placed on a horizontal shaker at low speed for 10 minutes to fully lyse the cells. […]

| IC50 [nM] | SMILES |
| --- | --- |
| 100 to 1000 | C=CC(=O)N1CCC(c2cc(C#N)cnc2Oc2ccc(C(F)(F)F)cc2)CC1 [Compound T74] |
| ≤ 100 | C=CC(=O)N1CCC(c2ccccc2Nc2ccc(C(F)(F)F)cc2)CC1 [Compound T64] |
| 1000 to 5000 | C=C(C)C(=O)N1CCC(c2cccnc2Nc2ccc(C(F)(F)F)cc2)CC1 [Compound T48] |
| ≤ 100 | C=CC(=O)N1CC=C(c2cccnc2Nc2ccc(C(F)(F)F)cc2)CC1 [Compound T2] |
| 100 to 1000 | C=CC(=O)N1CCC(c2cc(C(F)(F)F)cnc2Nc2ccc(C(F)(F)F)cc2)CC1 [Compound T47] |
| ≤ 100 | C=CC(=O)N1CCC(c2cccnc2Nc2ccc(C)cc2)C1 (centres unmarked) [Compound T13] |
| ≤ 100 | C=CC(=O)N1CCC(c2c(Cl)ccnc2Nc2ccc(C(F)(F)F)cc2)CC1 [Compound T29] |
| 100 to 1000 | C=CC(=O)N1CC(c2cccnc2Nc2ccc(C(F)(F)F)cc2)C1 [Compound T5] |
| 100 to 1000 | C=C(F)C(=O)N1CCC(c2cccnc2Nc2ccc(C(F)(F)F)cc2)CC1 [Compound T51] |
| ≤ 100 | C=CC(=O)N1C(C)CC(c2cccnc2Oc2ccc(C(F)(F)F)cc2)CC1C (centres unmarked) [Compound T80] |
| ≤ 100 | C=CC(=O)N1CCC(c2cc(-c3ccn(C)n3)cnc2Nc2ccc(C(F)(F)F)cc2)CC1 [Compound T54] |
| 100 to 1000 | C=CC(=O)N1CCC(c2cc(-c3ccnn3C)cnc2Nc2ccc(C(F)(F)F)cc2)CC1 [Compound T60] |
| 100 to 1000 | C=CC(=O)N1CCC(c2cc3ccccc3nc2Nc2ccc(C(F)(F)F)cc2)CC1 [Compound T65] |
| ≤ 100 | C=CC(=O)N1CCC(c2cccnc2Nc2ccc(S(F)(F)(F)(F)F)cc2)CC1 [Compound T6] |
| ≤ 100 | C=CC(=O)N1CCC(c2cc(F)cnc2Nc2ccc(C(F)(F)F)cc2)CC1 [Compound T25] |
| 100 to 1000 | C=CC(=O)N1CCC(c2cc(-c3ccsc3)cnc2Nc2ccc(C(F)(F)F)cc2)CC1 [Compound T98] |
| 100 to 1000 | C=CC(=O)N1CCC(c2cc(-c3ccccn3)cnc2Nc2ccc(C(F)(F)F)cc2)CC1 [Compound T95] |
| 100 to 1000 | C=CC(=O)N1CCC(c2cccnc2Nc2ccc(C(F)(F)F)cc2)C1 (centres unmarked) [Compound T3] |
| ≤ 100 | C=CC(=O)N1CCC(c2cc(Cl)cnc2Nc2ccc(C(F)(F)F)cc2)CC1 [Compound T28] |
| ≤ 100 | C#CC(=O)N1CCC(c2cccnc2Nc2ccc(C(F)(F)F)cc2)CC1 [Compound T49] |
| ≤ 100 | C=CC(=O)N1CCC(c2ccc(OC)nc2Nc2ccc(C(F)(F)F)cc2)CC1 [Compound T33] |
| ≤ 100 | C=CC(=O)N1CC=C(c2cccnc2Nc2ccc(C)cc2)CC1 [Compound T12] |
| ≤ 100 | C=CC(=O)N1CCC(c2cccnc2Oc2ccc(C(F)(F)F)cc2)C(F)(F)C1 (centres unmarked) [Compound T77] |
| 100 to 1000 | C=CC(=O)N1CCC(c2ccnnc2Nc2ccc(C(F)(F)F)cc2)CC1 [Compound T42] |
| ≤ 100 | C=CC(=O)N1CCC(c2cccnc2Nc2ccc(C)cc2)CC1 [Compound T11] |

same assay, conditions: Homo sapiens, HEK-293T; transfected 293T cells, 48 hours incubation; reference compounds of WO2009081259A1; read-out: Nano Luciferas detection (IC50)

| IC50 [nM] | SMILES |
| --- | --- |
| > 5000 | FC(F)(F)c1ccc(Nc2ncccc2C2CCNCC2)cc1 [Reference compound 3, reference compound] |
| > 5000 | Cc1cnc(Nc2ccc(C(F)(F)F)cc2)c(C2CCNCC2)c1 [Reference compound 1, reference compound] |
| > 5000 | FC(F)(F)c1ccc(Nc2ncc(C(F)(F)F)cc2C2CCNCC2)cc1 [Reference compound 5, reference compound] |

tested on: Human pleural mesothelioma cells NCI-H226; test: Proliferation inhibition assay of human pleural mesothelioma cells NCI-H226 (CCK8); format: cell-based; conditions: 72 h, 3 days incubation
From the text: Experimental Example 1 Cell Anti-Proliferation Test
Proliferation Inhibition Assay of Human Pleural Mesothelioma Cells NCI-H226 by YAP-TEAD Inhibitor Compounds
Experimental materials and equipment: Human pleural mesothelioma cells NCI-H226 were purchased from Nanjing Cobioer Biosciences CO., LTD. RPMI-1640 medium (Bio-Channel), DMSO (dimethyl sulfoxide), CCK8 (WST-8) cell analysis kit (Beyotime), 0.25% EDTA-Tripsin (trypsin solution), 1×PBS (phosphate buffer, PH7.2), 96-well plate (Corning), fetal bovine serum (FBS), 10,000 U/mL penicillin-G/streptomycin, high-speed cryo-centrifuge (EPPENDORF 5810R), enzyme-linked immunoassay (Tecan Spark).
• A) Tumor cells were cultured in RPMI-1640 (containing 10% FBS and 100 U/mL penicillin-G/streptomycin) at 37° C., 5% CO^2 and saturated humidity until 80-90% density. • B) Removed the culture medium from 10 cm Petri dishes; • C) Rinsed the cells once with 10 ml 1×PBS; • D) Added 4 ml 0.25% EDTA-Tripsin into 37° C., 5% CO^2 incubator for trypsin digestion for 5 minutes, transferred to 15 ml centrifuge tube, centrifuged at 200 g for 5 minutes, discarded the supernatant to get cell precipitate; • E) Resuspend with 4 ml DMEM medium, count and adjust to 10,000 cells/ml. • F) Added cell suspension to 96-well plate with 100 μL per well volume and incubate overnight at 37° C., 5% CO^2 incubator.
• A) Preparation of gradient dilution solution of tested compounds: the test compounds were configured into 1 mM reservoir solution. Then 1.5 μl of the reservoir solution was dissolved in 1.5 ml of DMSO-free culture solution, and then a 3-fold serial gradient dilution was performed with 0.1% DMSO culture solution for a total of 9 concentrations, and the concentrations of the compounds after dilution were as follows: • 333.33 nM, 111.11 nM, 37.03 nM, 12.35 nM, 4.15 nM, 1.37 nM, 0.46 nM, 0.15 nM • B) After thorough mixing, 100 μL of culture compound solution was taken separately to replace the culture solution in the cell culture plate, with 4 replicate wells for each concentration; • C) The cells were transferred to the incubator and incubated for 3 days.
• A) Removed the cell culture plate and added 10 μl of CCK-8 (WST-8) solution per well in the biosafety cabinet. • B) Placed the cell culture plate back into the incubator and continued incubation for 3 hours. • C) Determined the absorbance value by selecting 450 nm on a TECAN enzyme-linked immunoassay detector.
The cell viability (% Cell Viability) was calculated using the following formula.
[formula] • A (dosing): absorbance of wells with cells, CCK8 solution and drug solution • A (blank): absorbance of wells with medium and CCK8 solution but no cells • A (0 dosing): absorbance of wells with cells, CCK8 solution and no drug solution • Cell viability: Cell proliferation viability or cytotoxicity viability IC50 values were obtained by curve fitting with GraphPad Prism 8 software.

| IC50 [nM] | SMILES |
| --- | --- |
| 100 to 1000 | C=CC(=O)N1CCC(c2cc(C#N)cnc2Oc2ccc(C(F)(F)F)cc2)CC1 [Compound T74] |
| ≤ 100 | C=CC(=O)N1CCC(c2ccccc2Nc2ccc(C(F)(F)F)cc2)CC1 [Compound T64] |
| 1000 to 5000 | C=C(C)C(=O)N1CCC(c2cccnc2Nc2ccc(C(F)(F)F)cc2)CC1 [Compound T48] |
| ≤ 100 | C=CC(=O)N1CC=C(c2cccnc2Nc2ccc(C(F)(F)F)cc2)CC1 [Compound T2] |
| 100 to 1000 | C=CC(=O)N1CCC(c2cc(C(F)(F)F)cnc2Nc2ccc(C(F)(F)F)cc2)CC1 [Compound T47] |
| ≤ 100 | C=CC(=O)N1CCC(c2cccnc2Nc2ccc(C)cc2)C1 (centres unmarked) [Compound T13] |
| ≤ 100 | C=CC(=O)N1CCC(c2c(Cl)ccnc2Nc2ccc(C(F)(F)F)cc2)CC1 [Compound T29] |
| 100 to 1000 | C=CC(=O)N1CC(c2cccnc2Nc2ccc(C(F)(F)F)cc2)C1 [Compound T5] |
| 100 to 1000 | C=C(F)C(=O)N1CCC(c2cccnc2Nc2ccc(C(F)(F)F)cc2)CC1 [Compound T51] |
| ≤ 100 | C=CC(=O)N1C(C)CC(c2cccnc2Oc2ccc(C(F)(F)F)cc2)CC1C (centres unmarked) [Compound T80] |
| 100 to 1000 | C=CC(=O)N1CCC(c2cc(-c3ccn(C)n3)cnc2Nc2ccc(C(F)(F)F)cc2)CC1 [Compound T54] |
| 1000 to 5000 | C=CC(=O)N1CCC(c2cc(-c3ccnn3C)cnc2Nc2ccc(C(F)(F)F)cc2)CC1 [Compound T60] |
| 100 to 1000 | C=CC(=O)N1CCC(c2cc3ccccc3nc2Nc2ccc(C(F)(F)F)cc2)CC1 [Compound T65] |
| ≤ 100 | C=CC(=O)N1CCC(c2cccnc2Nc2ccc(S(F)(F)(F)(F)F)cc2)CC1 [Compound T6] |
| ≤ 100 | C=CC(=O)N1CCC(c2cc(F)cnc2Nc2ccc(C(F)(F)F)cc2)CC1 [Compound T25] |
| 1000 to 5000 | C=CC(=O)N1CCC(c2cc(-c3ccsc3)cnc2Nc2ccc(C(F)(F)F)cc2)CC1 [Compound T98] |
| 1000 to 5000 | C=CC(=O)N1CCC(c2cc(-c3ccccn3)cnc2Nc2ccc(C(F)(F)F)cc2)CC1 [Compound T95] |
| 100 to 1000 | C=CC(=O)N1CCC(c2cccnc2Nc2ccc(C(F)(F)F)cc2)C1 (centres unmarked) [Compound T3] |
| ≤ 100 | C=CC(=O)N1CCC(c2cc(Cl)cnc2Nc2ccc(C(F)(F)F)cc2)CC1 [Compound T28] |
| 1000 to 5000 | C#CC(=O)N1CCC(c2cccnc2Nc2ccc(C(F)(F)F)cc2)CC1 [Compound T49] |
| 100 to 1000 | C=CC(=O)N1CCC(c2ccc(OC)nc2Nc2ccc(C(F)(F)F)cc2)CC1 [Compound T33] |
| ≤ 100 | C=CC(=O)N1CC=C(c2cccnc2Nc2ccc(C)cc2)CC1 [Compound T12] |
| ≤ 100 | C=CC(=O)N1CCC(c2cccnc2Oc2ccc(C(F)(F)F)cc2)C(F)(F)C1 (centres unmarked) [Compound T77] |
| 100 to 1000 | C=CC(=O)N1CCC(c2ccnnc2Nc2ccc(C(F)(F)F)cc2)CC1 [Compound T42] |
| ≤ 100 | C=CC(=O)N1CCC(c2cccnc2Nc2ccc(C)cc2)CC1 [Compound T11] |

same assay, conditions: 72 h, 3 days incubation, reference compounds of WO2009081259A1

| IC50 [nM] | SMILES |
| --- | --- |
| > 5000 | FC(F)(F)c1ccc(Nc2ncccc2C2CCNCC2)cc1 [Reference compound 3, reference compound] |
| > 5000 | Cc1cnc(Nc2ccc(C(F)(F)F)cc2)c(C2CCNCC2)c1 [Reference compound 1, reference compound] |
| > 5000 | FC(F)(F)c1ccc(Nc2ncc(C(F)(F)F)cc2C2CCNCC2)cc1 [Reference compound 5, reference compound] |
